Experimental data as given in patent US20230122249A1, “1H-PYRAZOLO[4,3-d]PYRIMIDINE COMPOUNDS AS TOLL-LIKE RECEPTOR 7 (TLR7) AGONISTS” (BRISTOL-MYERS SQUIBB COMPANY, priority 2020, published 2023).

Key:
[1] = test system: CD69 in human whole blood; assay: Induction of CD69 in human whole blood (hWB); type: cell-based; conditions: heparinized human whole blood, 17 h, CD69 surface staining; 100% set to 1 uM resiquimod; average where assay repeated
In short: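 hWB stimulated with compound at 1 uM final (1 mM stock), 37° C o/n (17 hrs). Surface CD69-PE staining with CD14/CD19 gating, fix/lysis, then flow cytometry read. IC50 curves with 100% set to 1 uM resiquimod.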

human TLR7 = molecular target: T1, human TLR7 (Homo sapiens, UniProt Q9NYK1); assay: Human TLR7 agonist activity (hTLR7 reporter) assay in HEK-Blue TLR7 cells, SEAP readout; type: cell-based; conditions: 18 h treatment, average where assay repeated
T1 construct: host or cells: HEK-Blue TLR7 cells (engineered human embryonic kidney cells)
T1 sequence (Q9NYK1 27-1049): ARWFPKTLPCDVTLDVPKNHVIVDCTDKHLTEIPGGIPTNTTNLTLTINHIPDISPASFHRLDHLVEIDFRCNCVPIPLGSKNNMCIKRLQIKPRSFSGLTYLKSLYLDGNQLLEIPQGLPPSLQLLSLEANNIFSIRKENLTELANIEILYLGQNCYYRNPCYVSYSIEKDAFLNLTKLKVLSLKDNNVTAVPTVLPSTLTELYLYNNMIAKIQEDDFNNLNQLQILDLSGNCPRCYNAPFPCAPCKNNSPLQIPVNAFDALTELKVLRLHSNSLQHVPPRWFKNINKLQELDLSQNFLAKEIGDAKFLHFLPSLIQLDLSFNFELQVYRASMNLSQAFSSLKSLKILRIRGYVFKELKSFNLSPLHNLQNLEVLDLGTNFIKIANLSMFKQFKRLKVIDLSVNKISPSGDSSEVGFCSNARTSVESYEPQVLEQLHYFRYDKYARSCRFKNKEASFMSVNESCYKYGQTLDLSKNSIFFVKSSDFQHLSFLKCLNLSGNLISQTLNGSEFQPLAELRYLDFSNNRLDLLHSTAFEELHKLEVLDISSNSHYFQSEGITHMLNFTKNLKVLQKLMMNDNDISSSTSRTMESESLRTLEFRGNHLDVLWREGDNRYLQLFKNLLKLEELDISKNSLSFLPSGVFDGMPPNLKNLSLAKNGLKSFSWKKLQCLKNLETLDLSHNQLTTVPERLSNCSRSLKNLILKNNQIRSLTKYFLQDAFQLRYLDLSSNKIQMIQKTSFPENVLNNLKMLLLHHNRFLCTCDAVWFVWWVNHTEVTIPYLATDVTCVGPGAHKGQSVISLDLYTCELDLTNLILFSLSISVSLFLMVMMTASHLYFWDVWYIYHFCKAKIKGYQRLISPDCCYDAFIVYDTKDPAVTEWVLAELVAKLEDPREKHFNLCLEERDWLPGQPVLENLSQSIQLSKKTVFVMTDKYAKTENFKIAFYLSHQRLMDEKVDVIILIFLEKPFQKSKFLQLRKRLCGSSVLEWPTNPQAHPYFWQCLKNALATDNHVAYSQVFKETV
In short: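 HEK-Blue TLR7 cells (15,000/well) treated with compound for 18 h at 37 °C, 5% CO2. Secreted SEAP measured with Quanti-Blue, 30 min, OD 620 nm. EC50 taken as concentration giving half-maximal response between baseline and maximum.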

SMILES	EC50 [1]	EC50 (human TLR7)
CCC[C@@H](CCO)Nc1nc(N)nc2cnn(Cc3ccc(CN4CC5(CN(C)C5)C4)cc3OC)c12 [Compound 215]	104 nM	372 nM
COc1cc(C(=O)NC2CCN(C(C)C)CC2)ccc1Cn1ncc2nc(N)nc(NCC3CC4(CC4)C3)c21 [Compound 194]	101 nM	104 nM
CCCCNc1nc(N)nc2cnn(Cc3ccc(CN4CC5(COC5)C4)cc3OC)c12 [Compound 103]	13.5 nM	62.9 nM
COc1cc(C(=O)NCCN(C)C)ccc1Cn1ncc2nc(N)nc(NCC3CC4(CC4)C3)c21 [Compound 234]	10.2 nM	93.2 nM
COc1cc(CN2CC3(C2)CS(=O)(=O)C3)ccc1Cn1ncc2nc(N)nc(NCc3noc(C)n3)c21 [Compound 254]	18.7 nM	244 nM
COc1cc(CO)ccc1Cn1ncc2nc(N)nc(NCC3CC4(CC4)C3)c21 [Compound 166, (4-((5-amino-7-((spiro[2.3]hexan-5-ylmethyl)amino)-1H-pyrazolo[4,3-d]pyrimidin-1-yl)methyl)-3-methoxyphenyl)methanol]	117 nM	261 nM
CCC[C@@H](CCO)Nc1nc(N)nc2cnn(Cc3ccc(CN4CC5(C4)CN(C(=O)C4CCC4)C5)cc3OC)c12 [Compound 106]	24.9 nM	11.6 nM
COc1cc(CN2CC3(C2)CN(C(C)C)C3)ccc1Cn1ncc2nc(N)nc(NCc3noc(C)n3)c21 [Compound 263]	12.7 nM	68.7 nM
COc1cc(CN2CC3(C2)CS(=O)(=O)C3)ccc1Cn1ncc2nc(N)nc(NCC3CC4(CC4)C3)c21 (stereo not shown) [Compound 145]	326 nM	179 nM
COc1cc(C(=O)N(CCO)CCO)ccc1Cn1ncc2nc(N)nc(NCC3CC4(CC4)C3)c21 [Compound 228]	553 nM	894 nM
COc1cc(C(=O)N2CC3(CN(C)C3)C2)ccc1Cn1ncc2nc(N)nc(NCc3noc(C)n3)c21 [Compound 247]	37.1 nM	197 nM
COc1cc(CN2CC3(CCO3)C2)ccc1Cn1ncc2nc(N)nc(NCC3CC4(C3)CC4F)c21 (stereo not shown) [Compound 127]	413 nM	214 nM
COc1cc(C(=O)N2C[C@H]3C[C@@H]2CN3C)ccc1Cn1nc(C)c2nc(N)nc(NCC3CC4(CC4)C3)c21 [Compound 208]	45.8 nM	119 nM
CCCCNc1nc(N)nc2cnn(Cc3ccc(CN4CCC5(C4)CN(CCO)C5)cc3OC)c12 [Compound 262]	4.4 nM	64.5 nM
COc1cc(C(=O)NCCN(C)C)ccc1Cn1ncc2nc(N)nc(NCC3CC4(C3)CC4(F)F)c21 (stereo not shown) [Compound 163]	268 nM	705 nM
CCC[C@@H](CCO)Nc1nc(N)nc2cnn(Cc3ccc(CN4CC5(CCO5)C4)cc3OC)c12 [Compound 112]	333 nM	1.5 nM
COc1cc(CN2C[C@H]3COC[C@H]3C2)ccc1Cn1ncc2nc(N)nc(NCC3CC4(C3)CC4F)c21 (stereo partly shown) [Compound 119]	258 nM	144 nM

The remaining lines, values ahead:

EC50 [1]	EC50 (human TLR7)	SMILES
168 nM	315 nM	COc1cc(C(=O)NC2CN(C)C2)ccc1Cn1ncc2nc(N)nc(NCC3CC4(CC4)C3)c21 [Compound 190]
21.9 nM	47.3 nM	COc1cc(C(=O)N[C@H]2CCN(C)C2)ccc1Cn1ncc2nc(N)nc(NCC3CC4(CC4)C3)c21 [Compound 192]
35 nM	125 nM	CN1C[C@@H]2CN(C(=O)c3ccc(Cn4ncc5nc(N)nc(NCC6CC7(CC7)C6)c54)c(OC(F)F)c3)C[C@@H]2C1 [Compound 218]
202 nM	394 nM	COc1cc(C(=O)N2C[C@H]3CNC[C@H]3C2)ccc1Cn1ncc2nc(N)nc(NCC3CC4(CCC4)C3)c21 [Compound 182]
156 nM	365 nM	COc1cc(C(=O)N2C[C@@H]3C[C@H]2CN3)ccc1Cn1ncc2nc(N)nc(NCC3CC4(CC4)C3)c21 [Compound 178]
359 nM	579 nM	COc1cc(C(=O)N[C@H]2C[C@H](O)C2)ccc1Cn1ncc2nc(N)nc(NCC3CC4(CC4)C3)c21 [Compound 177]
223 nM	146 nM	COc1cc(C(=O)N2CCN(C(C)=O)CC2)ccc1Cn1ncc2nc(N)nc(NCC3CC4(CC4)C3)c21 [Compound 235]
13.1 nM	36.5 nM	COc1cc(C(=O)N2C[C@@H]3C[C@H]2CN3C)ccc1Cn1ncc2nc(N)nc(NCC3CC4(CC4)C3)c21 [Compound 179]
374 nM	76.9 nM	COc1cc(CN2C[C@@H]3C[C@H]2CN3)ccc1Cn1ncc2nc(N)nc(NCC3CC4(CCC4)C3)c21 [Compound 156]
110 nM	39 nM	COc1cc(C(=O)N2CCN(CC(C)(C)O)CC2)ccc1Cn1ncc2nc(N)nc(NCC3CC4(CC4)C3)c21 [Compound 239]
4.5 nM	28 nM	COc1cc(CN2C[C@H]3CNC[C@H]3C2)ccc1Cn1ncc2nc(N)nc(NCC3CC4(CC4)C3)c21 [Compound 169]
10.8 nM	115 nM	COc1cc(C(=O)N2C[C@H]3CN(C)C[C@H]3C2)ccc1Cn1nc(C)c2nc(N)nc(NCC3CC4(CC4)C3)c21 [Compound 217]
